Literature values in the CATMoS acute toxicity set (Mansouri et al. 2021).
“And” between values parts separate entries of the source, which are not always exact repeats. Identical values can stand only once.

Assay: rat acute oral toxicity
Conditions: in vivo
In the case of `COCC=O`, the LD50 is listed as 2330 mg/kg.
For `C=Cc1ccc(C=O)o1`, the LD50 is given as 2080 mg/kg.
In the case of `CCOP(=S)(CCl)Sc1ccc(C)cc1` (stereo not given), the LD50 is listed as 336 mg/kg.
For `CNC(=O)N(C)c1nnc(C(F)(F)F)s1`, the LD50 is listed as 278 mg/kg.
In the case of `CNC(=O)Oc1cccc2c(O)cccc12`, the LD50 is given as 297 mg/kg.
In the case of `C=CCN(CC=C)C(=O)CSP(=S)(OCC)OCC`, the LD50 is given as 48 mg/kg.
For `Cc1cc(C=Cc2ccc3cc(N(C)C)ccc3[n+]2C)c(C)n1-c1ccccc1`, the LD50 is listed as 161 mg/kg.
In the case of `C[N+]1(C)CCCC(OC(=O)C(O)(c2ccccc2)c2ccccc2)C1` (stereo not given), the LD50 is listed as 742 mg/kg.
In the case of `CC(C)(C)c1cc(CCC(=O)OCCSCCOC(=O)CCc2cc(C(C)(C)C)c(O)c(C(C)(C)C)c2)cc(C(C)(C)C)c1O`, the LD50 is given as 6300 mg/kg.
In the case of `Cc1c(C)c2c(c(C)c1O)CCC(C)(C(=O)O)O2` (stereo not given), the LD50 is given as 4300 mg/kg.
For `O=C(O)CONC(=O)c1ccccc1`, the LD50 is listed as 2500 mg/kg.
For `OCCNC1CCCCC1`, the LD50 is given as 38300 mg/kg.
For `Cn1c(=O)c2c(ncn2CCNCc2cccnc2)n(C)c1=O`, the LD50 is given as 3700 mg/kg.
For `CC1OC1(C)C` (stereo not given), the LD50 is given as 2640 mg/kg.
In the case of `Nc1c(Cl)cc(Cl)cc1C(=O)O`, the LD50 is given as 4120 mg/kg.
For `O=C1CC[C@@]2(O)[C@H]3Cc4ccc(O)c5c4[C@@]2(CCN3CC2CC2)[C@H]1O5`, the LD50 is given as 1450 mg/kg.
For `O=C1OC(=O)c2ccc3c4c(ccc1c24)C(=O)OC3=O`, the LD50 is listed as 7400 mg/kg.
For `ClCCOCCCl`, the LD50 is listed as 75 mg/kg.
For `CC(C)=CC1C(C(=O)OCc2ccc(C)cc2C)C1(C)C` (stereo not given), the LD50 is given as 40000 mg/kg.
For `O=[N+]([O-])c1c(Cl)cc(Cl)c([N+](=O)[O-])c1Cl`, the LD50 is given as 500 mg/kg.
For `CCCCC1OC(=O)c2ccccc21` (stereo not given), the LD50 is given as 2450 mg/kg.
For `C(=CNc1ccccc1)C=Nc1ccccc1`, the LD50 is listed as 1130 mg/kg.
In the case of `N#CN`, the LD50 is given as 1620 mg/kg.
For `CCC(C)OC(C[n+]1ccccc1)c1cccc(Cl)c1` (stereo not given), the LD50 is listed as 250 mg/kg.
For `CC(C)OC(=S)S`, the LD50 is given as 1700 mg/kg and 1250 mg/kg.
For `CCC(C)S` (stereo not given), the LD50 is listed as 5180 mg/kg.
In the case of `CN(SC(Cl)(Cl)Cl)C(=O)ON=C1SC(=C(C#N)C#N)SC1(C)C`, the LD50 is given as 538 mg/kg.
For `OCCSSc1c(Cl)c(Cl)c(Cl)c(Cl)c1Cl`, the LD50 is given as 2860 mg/kg.
In the case of `CC(=O)Nc1ccc(CC(=O)O)cc1`, the LD50 is given as 14800 mg/kg.
For `COc1c(Cl)cc(Cl)c(Cl)c1C(=O)O`, the LD50 is given as 300 mg/kg.
In the case of `CC(C)CNC(=O)N1CCNC1=O`, the LD50 is listed as 3500 mg/kg.
For `CCCC1OCS/C1=N\OC(O)=NC` (stereo not given), the LD50 is given as 83 mg/kg.
For `CNC(C)CC1CCCCC1` (stereo not given), the LD50 is given as 83 mg/kg.
In the case of `O=[N+]([O-])c1ccc(Nc2ccc(O)cc2)c([N+](=O)[O-])c1`, the LD50 is listed as 15600 mg/kg.
In the case of `NC1=NC(C(F)(F)F)(C(F)(F)F)NC1(C(F)(F)F)C(F)(F)F`, the LD50 is listed as 19 mg/kg.
For `COC(=O)C(C)N(C(=O)c1ccco1)c1c(C)cccc1C` (stereo not given), the LD50 is listed as 940 mg/kg.
In the case of `O=C(O)c1ccccc1Nc1cccc(Cl)c1CO`, the LD50 is given as 2400 mg/kg.
In the case of `COc1cccc(O)c1`, the LD50 is listed as 597 mg/kg.
For `OCCOc1ccc(Cl)cc1Cl`, the LD50 is listed as 1410 mg/kg.
For `CC1CCCCN1CCCOC(=O)c1ccc(OC2CCCCC2)cc1` (stereo not given), the LD50 is given as 2340 mg/kg.
In the case of `C[Si](Cl)(Cl)CCC(F)(F)F`, the LD50 is listed as 1000 mg/kg.
For `CN(C)c1ccc(Cn2cnc3c2c(=O)n(C)c(=O)n3C)cc1`, the LD50 is listed as 1100 mg/kg.
In the case of `CC(C)COCC(C)O` (stereo not given), the LD50 is listed as 4290 mg/kg.
In the case of `O=C(O)c1ccc2c(c1)CCC(Cn1ccnc1)C2` (stereo not given), the LD50 is given as 1990 mg/kg.
In the case of `CCCP(=O)(CCC)CCC`, the LD50 is listed as 1410 mg/kg.
For `CC[N+]1(C)CCCC(OC(=O)C(O)(c2ccccc2)c2ccccc2)C1` (stereo not given), the LD50 is given as 916 mg/kg and 850 mg/kg.
For `O=C1c2ccccc2-c2c([N+](=O)[O-])cc3c4cc([N+](=O)[O-])c5c6c(ccc(c7ccc1c2c73)c64)C(=O)c1ccccc1-5`, the LD50 is given as 10000 mg/kg.
For `CN(CCCl)c1ccc(C=CC2=[N+](C)c3ccccc3C2(C)C)cc1`, the LD50 is listed as 2260 mg/kg.
In the case of `O=C(c1ccccc1)c1ccc2n1CC[C@H]2C(=O)O`, the LD50 is listed as 189 mg/kg.
For `COP(=O)(OC)OC(C)=CC(=O)OCc1ccccc1`, the LD50 is given as 56 mg/kg.
In the case of `C=C(C)C(=O)OCCC[Si](OC)(OC)OC`, the LD50 is listed as 23500 mg/kg.
For `C=CCn1c(N)cc(=O)n(CC)c1=O`, the LD50 is listed as 2300 mg/kg.
For `C=C(C)CNc1ccc(C(C)C(=O)O)cc1` (stereo not given), the LD50 is listed as 550 mg/kg.
In the case of `Cc1ccc(C(=O)c2ccccc2)c(C(=O)O)c1`, the LD50 is given as 5600 mg/kg.
For `Cc1nc(N)nc(N2N=CCC2C)n1` (stereo not given), the LD50 is given as 3200 mg/kg.
For `O=C(OC1CCC(N2CCCCC2)CC1)C1CCCCC1` (stereo not given), the LD50 is given as 2500 mg/kg.
For `CN1C(=O)CCc2cc(C(=O)CCN3CCN(c4ccccc4)CC3)ccc21`, the LD50 is listed as 500 mg/kg.
For `c1ccc(N=Nc2ccccc2)cc1`, the LD50 is given as 1000 mg/kg.
For `O=C(NC1CCSC1=O)c1cccnc1` (stereo not given), the LD50 is given as 4500 mg/kg.
In the case of `CCOC(C1=NCC(C)(C)N1)c1ccc(Cl)c(Cl)c1` (stereo not given), the LD50 is given as 110 mg/kg.
For `c1ccc2c(c1)OCO2`, the LD50 is listed as 580 mg/kg.
For `OCCC1CCCCC1`, the LD50 is given as 940 mg/kg.
In the case of `C=CCNP(=O)(OC=C(Cl)Cl)OC1CCCCC1` (stereo not given), the LD50 is given as 100 mg/kg.
For `O=C(C=Cc1ccccc1)NO`, the LD50 is listed as 2140 mg/kg.
For `O=CC(Br)=Cc1ccccc1`, the LD50 is given as 1450 mg/kg.
For `CCCn1c(C)cc(OP(=S)(OCC)OCC)cc1=O`, the LD50 is given as 9.75 mg/kg.
In the case of `O=C(CF)Nc1ccccn1`, the LD50 is given as 8 mg/kg.
In the case of `COc1cc(OC)n2nc(N)nc2n1`, the LD50 is given as 1030 mg/kg.
For `COC(=O)c1ccccc1N=NN(C)C`, the LD50 is given as 13 mg/kg.
In the case of `O=C1CN2CCOC2(c2ccccc2F)c2cc(Br)ccc2N1` (stereo not given), the LD50 is given as 2860 mg/kg.
In the case of `COc1ccc(SC#N)c([N+](=O)[O-])c1`, the LD50 is listed as 3540 mg/kg.
In the case of `O=C(OCC(O)CO)c1ccccc1Nc1ccnc2cc(Cl)ccc12` (stereo not given), the LD50 is listed as 2300 mg/kg.
In the case of `O=Cc1ccc(O)cc1O`, the LD50 is given as 400 mg/kg.
For `C[C@@]12CCCCC[C@@H](Cc3ccc(O)cc31)[C@@H]2N`, the LD50 is listed as 243 mg/kg.
In the case of `O=C(O)CF`, the LD50 is given as 4.68 mg/kg.
